Assay results: US6930115B2, “Antitumor effect potentiators” (Mitsubishi Pharma Corporation, priority 2000, dated 2005)

Experiments:
[1] = system: Mouse melanoma B16-F10 cells; experiment: Measurement of cell growth activity (MTT), in vitro growth of B16-F10 cells; assay type: cell-based; conditions: 72 hr culture, MTT
Procedure: Mouse melanoma B16-F10 cells (the aforementioned) were cultured in MEM supplemented with 2 mM L-glutamine, 1 mM MEM non-essential amino acids, 1% MEM vitamins, 1 mM pyruvic acid and 5% FCS, and the cells were scraped off from the culture flask every 3-4 days with a cell scraper (No. 3010, manufactured by Coaster), diluted 10-fold and maintained by subculture. In the experiment examining the effect of the test substance on the cell growth, the B16-F10 cells maintained in vitro by subculture were recovered with a cell scraper, suspended in MEM supplemented with 10% FCS at 2×10^5 cells/mL and added to a 96 well microtest plate (Becton Dickinson) at 1×10^4 cells/50 μL/well. Furthermore, 50 μL of a test substance at a 2-fold concentration of the final concentration was added to the well, and cultured in a CO2 incubator (MCO-175, SANYO Electric Co., Ltd.) at 37° C., 5% CO2 95% air for 72 hr.
After culture, 10 mg/mL of MTT [(3-[4,5-Dimethylthiazol-2-yl]-2,5-diphenyl-tetrazolium bromide)] was added at 10 μL/well, which was followed by culture for 3 hr. Thereafter, 100 μL of 10% SDS (sodium dodecylsulfate)—0.01N HCl was added to dissolve the pigment and absorbance at 570 nm was measured with a multilabel counter (1420 ARVO SX, Pharmacia Biotech Corporation). According to the concentration of the test substance, each well was expressed by absorbance, and average value and standard error. Using the well, to which the medium alone was added, as a control, the growth inhibition rate was calculated according to the following formula. [formula] Analysis method: Based on the dose reaction curves of the inventive compound alone treatment group and cisplatin alone treatment group, the combination index (CI) of the action in concomitant use is calculated by median effect analysis (References and [2]). (Results)

[2] = system: mouse B16-F10 melanoma cultured cells; experiment: Hematogenous pulmonary metastasis after transplantation of mouse B16-F10 melanoma cultured cells into tail vein; assay type: in vivo; conditions: alone
Procedure: • (1) Preparation of mouse B16-F10 melanoma cultured cells (hereinafter simply B16-F10) B16-F10 cells (a permission to use was obtained from US M.D. Anderson Cancer Center, Dr. I. Fidler and provided for use from Japanese Foundation for cancer research·cancer chemotherapy center, Dr. […] For experiment, B16-F10 cells were suspended in MEM at 5×10^5 cells/mL and 0.2 mL thereof was transferred into the tail vein of 8-week-old male C57BL/6 mice (8 per group). […] Alzet, model 1002, flow rate […], for use for 14 days), and the osmotic pump was intraperitoneally transplanted into the mice one day before the transplantation of B16-F10 cells. • (3) As regards cisplatin, a preparation for injection (product name: Randa injection) was diluted with physiological saline and intraperitoneally administered once the day after transplantation of B16-F10 cells. As regards etoposide, a preparation for injection (product name: […] injection) was diluted with physiological saline and repeatedly administered intraperitoneally once a day for 5 days starting from one day after transplantation of B16-F10 cells. Paclitaxel was purchased from Sigma chemicals Co., suspended in 0.5% metolose solution and repeatedly administered intraperitoneally once every other day (3 times/week for 2 weeks) starting from one day after transplantation of B16-F10 cells. […] In addition, the values of combination index (CI) of the action in concomitant use analyzed by Median Effect Analysis (References and [2]) with regard to the combination group of the compound of the present invention and the anticancer agent are summarized in Table 3 and Table 6.

## N.N.[Cl][Pt][Cl] [cisplatin, reference compound]
[1]; cisplatin 10 μM alone
  average growth suppression rate ± standard error: 5.813 ± 1.510%
[1]; cisplatin 30 μM alone
  average growth suppression rate ± standard error: 29.609 ± 4.503%
[1]; cisplatin 100 μM alone
  average growth suppression rate ± standard error: 96.631 ± 0.109%
[2]; Table 1, cisplatin 0.5 mg/kg intraperitoneally once, 14 days after cell transfer
  T/C±standard error (average number of pulmonary metastatic colonies of administration group/control group ×100): 80.2 ± 13.2%
[2]; Table 1, cisplatin 1 mg/kg intraperitoneally once, 14 days after cell transfer
  T/C±standard error (average number of pulmonary metastatic colonies of administration group/control group ×100): 66.5 ± 8.3%
[2]; Table 1, cisplatin 2.5 mg/kg intraperitoneally once, 14 days after cell transfer
  T/C±standard error (average number of pulmonary metastatic colonies of administration group/control group ×100): 57.5 ± 3.0%
[2]; Table 1, cisplatin 5 mg/kg intraperitoneally once, 14 days after cell transfer
  T/C±standard error (average number of pulmonary metastatic colonies of administration group/control group ×100): 53.3 ± 4.5%
[2]; Table 1, cisplatin 10 mg/kg intraperitoneally once, 14 days after cell transfer
  T/C±standard error (average number of pulmonary metastatic colonies of administration group/control group ×100): 46.7 ± 4.1%
[2]; Table 2, cisplatin 0.5 mg/kg intraperitoneally once, 14 days after cell transfer
  T/C±standard error (average number of pulmonary metastatic colonies of administration group/control group ×100): 81.7 ± 13.4%
[2]; Table 2, cisplatin 1 mg/kg intraperitoneally once, 14 days after cell transfer
  T/C±standard error (average number of pulmonary metastatic colonies of administration group/control group ×100): 67.7 ± 8.4%
[2]; Table 2, cisplatin 2.5 mg/kg intraperitoneally once, 14 days after cell transfer
  T/C±standard error (average number of pulmonary metastatic colonies of administration group/control group ×100): 58.6 ± 3.0%
[2]; Table 2, cisplatin 5 mg/kg intraperitoneally once, 14 days after cell transfer
  T/C±standard error (average number of pulmonary metastatic colonies of administration group/control group ×100): 54.3 ± 4.6%
[2]; Table 2, cisplatin 10 mg/kg intraperitoneally once, 14 days after cell transfer
  T/C±standard error (average number of pulmonary metastatic colonies of administration group/control group ×100): 30.8 ± 4.7%

## COc1cc([C@@H]2c3cc4c(cc3[C@@H](O[C@@H]3O[C@@H]5CO[C@@H](C)O[C@H]5[C@H](O)[C@H]3O)[C@H]3COC(=O)[C@H]23)OCO4)cc(OC)c1O [etoposide, reference compound]
[2]; Table 4, etoposide 1 mg/kg intraperitoneally once a day for 5 days
  T/C±standard error (average number of pulmonary metastatic colonies of administration group/control group ×100): 56.0 ± 3.0%
[2]; Table 4, etoposide 2.5 mg/kg intraperitoneally once a day for 5 days
  T/C±standard error (average number of pulmonary metastatic colonies of administration group/control group ×100): 34.0 ± 7.4%
[2]; Table 4, etoposide 5 mg/kg intraperitoneally once a day for 5 days
  T/C±standard error (average number of pulmonary metastatic colonies of administration group/control group ×100): 33.4 ± 4.0%
[2]; Table 4, etoposide 10 mg/kg intraperitoneally once a day for 5 days
  T/C±standard error (average number of pulmonary metastatic colonies of administration group/control group ×100): 22.5 ± 4.2%
[2]; Table 4, etoposide 25 mg/kg intraperitoneally once a day for 5 days
  T/C±standard error (average number of pulmonary metastatic colonies of administration group/control group ×100): 14.5 ± 2.6%

## CC(=O)O[C@H]1C(=O)[C@@]2(C)[C@H]([C@H](OC(=O)c3ccccc3)[C@]3(O)C[C@H](OC(=O)[C@H](O)[C@@H](NC(=O)c4ccccc4)c4ccccc4)C(C)=C1C3(C)C)[C@]1(OC(C)=O)CO[C@@H]1C[C@@H]2O [paclitaxel, reference compound]
[2]; Table 5, paclitaxel 1 mg/kg intraperitoneally once every other day (3 times/week for 2 weeks)
  T/C±standard error (average number of pulmonary metastatic colonies of administration group/control group ×100): 75.9 ± 5.9%
[2]; Table 5, paclitaxel 2.5 mg/kg intraperitoneally once every other day (3 times/week for 2 weeks)
  T/C±standard error (average number of pulmonary metastatic colonies of administration group/control group ×100): 48.8 ± 8.4%
[2]; Table 5, paclitaxel 5 mg/kg intraperitoneally once every other day (3 times/week for 2 weeks)
  T/C±standard error (average number of pulmonary metastatic colonies of administration group/control group ×100): 37.3 ± 4.0%
[2]; Table 5, paclitaxel 10 mg/kg intraperitoneally once every other day (3 times/week for 2 weeks)
  T/C±standard error (average number of pulmonary metastatic colonies of administration group/control group ×100): 30.3 ± 3.6%
[2]; Table 5, paclitaxel 25 mg/kg intraperitoneally once every other day (3 times/week for 2 weeks)
  T/C±standard error (average number of pulmonary metastatic colonies of administration group/control group ×100): 31.5 ± 7.2%
